Active and inactive are the calls of the source. No cut-off for these calls is given here.
Key:
[1] = biological target: T1, Peroxisome proliferator-activated receptor delta (Homo sapiens, UniProt Q03181); experiment: Agonist activity at PPAR delta (unknown origin) transfected in HEK293 cells after 24 hrs by dual-luciferase reporter gene assay; assay type: cell-based
T1 sequence (Q03181 whole entry): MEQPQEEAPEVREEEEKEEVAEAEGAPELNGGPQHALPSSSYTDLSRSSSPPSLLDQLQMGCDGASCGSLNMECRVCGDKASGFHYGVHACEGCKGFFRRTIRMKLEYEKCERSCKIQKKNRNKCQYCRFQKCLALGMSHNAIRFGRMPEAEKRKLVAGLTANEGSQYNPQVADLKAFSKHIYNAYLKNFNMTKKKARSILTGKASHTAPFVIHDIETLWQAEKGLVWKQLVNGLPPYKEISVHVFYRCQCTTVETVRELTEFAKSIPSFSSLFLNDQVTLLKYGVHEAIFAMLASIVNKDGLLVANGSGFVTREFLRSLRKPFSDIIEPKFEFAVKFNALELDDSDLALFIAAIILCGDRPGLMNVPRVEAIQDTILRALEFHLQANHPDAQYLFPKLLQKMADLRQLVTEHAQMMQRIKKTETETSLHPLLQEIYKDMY

[2] = biological target: T1, Peroxisome proliferator-activated receptor delta; experiment: Agonist activity at human PPAR delta by cell based cotransfection assay
Homo sapiens = organism: Homo sapiens; experiment: Ratio of EC50 for human PPAR alpha to EC50 for human PPAR delta
[3] = biological target: PPAR delta/gamma (Homo sapiens) (UniProt P37231+Q03181); experiment: Ratio of EC50 for human PPAR gamma to EC50 for human PPAR delta
PC-12 [4] = experiment: Neuroprotective activity against etoposide-induced apoptosis in rat PC12 cells assessed as cell viability at 1 uM preincubated for 4 hrs followed by etoposide addition measured after 48 hrs by prestoblue staining based fluorescence assay; assay type: functional
[5] = biological target: T2, Peroxisome proliferator-activated receptor gamma (Homo sapiens) (UniProt P37231); experiment: Agonist activity at PPAR gamma (unknown origin) transfected in HEK293 cells at 1 uM after 24 hrs by dual-luciferase reporter gene assay; assay type: cell-based
T2 sequence (whole entry): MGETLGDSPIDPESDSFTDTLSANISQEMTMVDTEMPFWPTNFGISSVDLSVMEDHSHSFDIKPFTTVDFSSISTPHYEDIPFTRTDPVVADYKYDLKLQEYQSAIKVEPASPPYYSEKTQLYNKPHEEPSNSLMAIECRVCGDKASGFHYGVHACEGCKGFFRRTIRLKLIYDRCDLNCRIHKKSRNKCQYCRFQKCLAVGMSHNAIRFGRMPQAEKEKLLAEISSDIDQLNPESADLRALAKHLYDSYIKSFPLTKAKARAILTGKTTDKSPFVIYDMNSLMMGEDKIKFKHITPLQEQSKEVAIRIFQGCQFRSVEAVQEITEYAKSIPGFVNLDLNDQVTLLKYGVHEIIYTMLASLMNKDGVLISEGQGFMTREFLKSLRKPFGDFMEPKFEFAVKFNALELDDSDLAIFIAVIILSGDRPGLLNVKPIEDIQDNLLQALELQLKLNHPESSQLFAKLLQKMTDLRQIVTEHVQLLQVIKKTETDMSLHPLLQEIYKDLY

[6] = biological target: T3, Peroxisome proliferator-activated receptor delta (Homo sapiens) (UniProt Q03181); experiment: Agonist activity at PPAR delta (unknown origin) transfected in HEK293 cells at 0.001 to 1000 uM after 24 hrs by DR-4 luciferase reporter gene assay; assay type: cell-based
T3 sequence (whole entry): T1 sequence (Q03181 whole entry)

[7] = biological target: T3, Peroxisome proliferator-activated receptor delta (Homo sapiens); experiment: Agonist activity at PPAR delta (unknown origin) transfected in HEK293 cells at 1 uM after 24 hrs by dual-luciferase reporter gene assay; assay type: cell-based
[8] = biological target: T4, Peroxisome proliferator-activated receptor alpha (Homo sapiens) (UniProt Q07869); experiment: Agonist activity at PPAR alpha (unknown origin) transfected in HEK293 cells at 1 uM after 24 hrs by dual-luciferase reporter gene assay; assay type: cell-based
T4 sequence (whole entry): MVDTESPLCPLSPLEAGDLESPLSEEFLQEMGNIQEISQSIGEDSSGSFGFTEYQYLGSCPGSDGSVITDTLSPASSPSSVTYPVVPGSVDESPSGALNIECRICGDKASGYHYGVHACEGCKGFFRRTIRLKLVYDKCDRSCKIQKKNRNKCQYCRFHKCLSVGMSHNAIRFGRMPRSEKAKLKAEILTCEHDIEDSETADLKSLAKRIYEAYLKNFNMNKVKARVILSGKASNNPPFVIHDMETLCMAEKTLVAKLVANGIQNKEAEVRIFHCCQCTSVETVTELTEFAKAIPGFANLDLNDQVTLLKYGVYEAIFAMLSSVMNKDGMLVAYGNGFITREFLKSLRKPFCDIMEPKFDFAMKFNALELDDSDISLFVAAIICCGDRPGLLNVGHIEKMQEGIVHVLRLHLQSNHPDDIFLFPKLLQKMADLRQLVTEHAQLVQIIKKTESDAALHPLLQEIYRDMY

PC-12 [9] = experiment: Neuroprotective activity against etoposide-induced apoptosis in rat PC12 cells assessed as cell viability at 3 uM preincubated for 4 hrs followed by etoposide addition measured after 48 hrs by prestoblue staining based fluorescence assay (reference value: 52 %); assay type: functional; details: read-out: Activity
PC-12 [10] = experiment: Neuroprotective activity against serum starvation-induced apoptosis in rat PC12 cells assessed as cell survival at 1 to 30 uM after 24 hrs by prestoblue staining based fluorescence assay (reference value: 55%); assay type: functional
[11] = biological target: T2, Peroxisome proliferator-activated receptor gamma (Homo sapiens); experiment: Agonist activity at PPAR gamma (unknown origin) transfected in HEK293 cells at 0.1 to 100 uM after 24 hrs by DR-1 luciferase reporter gene assay; assay type: cell-based
[12] = biological target: T3, Peroxisome proliferator-activated receptor delta (Homo sapiens); experiment: Agonist activity at PPAR delta (unknown origin) transfected in HEK293 cells at 0.001 to 1000 uM after 24 hrs by pGL3-Luciferase reporter gene assay; assay type: cell-based
[13] = biological target: T1, Peroxisome proliferator-activated receptor delta; experiment: Agonist activity at PPAR delta (unknown origin)

## O=P(O)(OCO)OCCC#CC#CCCCCCC/C=C/I
[1]
  EC50: > 10000 nM
[2]
  EC50: > 10 nM

## O=P(O)(CCO)OCCC#CC#CCCCCCC/C=C/I
Homo sapiens
  Ratio EC50: > 200
[1]
  EC50: 24 nM
[3]
  Ratio EC50: > 200
[2]
  EC50: 23.7 nM

## CCOP(=O)(O)CCO
PC-12 [4]
  Activity: Active
[5]
  Activity: inactive
[6]
  Activity: inactive
[7]
  Activity: Active
[1]
  EC50: 78 nM
[8]
  Activity: inactive
PC-12 [9]
  viability at 3 µM: 110%
PC-12 [10]
  Survival: 77%
[11]
  Activity: inactive
[12]
  Activity: inactive

## CCOP(=O)(CCO)OCC
PC-12 [4]
  Activity: Active
[5]
  Activity: inactive
[6]
  Activity: inactive
[7]
  Activity: Active
[1]
  EC50: 112 nM
[8]
  Activity: inactive
PC-12 [9]
  viability at 3 µM: 116%
PC-12 [10]
  Survival: 78%
[11]
  Activity: inactive
[12]
  Activity: inactive

## CCOC(=O)Nc1ccc(NCc2ccc(F)cc2)nc1N [FLUPIRTINE]
PC-12 [9]
  viability at 3 µM: 80%
PC-12 [10]
  Survival: 82%

## Cc1cccc(Nc2cc(Cl)nc(SCC(=O)O)n2)c1C
[8]
  Activity: Active

## CN(CCOc1ccc(CC2SC(=O)NC2=O)cc1)c1ccccn1 (stereo not given)
[5]
  Activity: Active

## O=P(O)(O)CCO
[5]
  Activity: inactive
[1]
  EC50: > 100000 nM
[8]
  Activity: inactive
[11]
  Activity: inactive

## C[C@@H]1CN(c2ccc(OC(F)(F)F)cc2)C[C@H](C)N1S(=O)(=O)c1cccc2c1C[C@@H](C(=O)O)C2
[13]
  EC50: 1.5 nM

## CCOC(=O)CCO
[5]
  Activity: Active
[7]
  Activity: Active
[1]
  EC50: > 1000 nM
[8]
  Activity: Active
[11]
  Activity: Active
